The source of these data is US8450090B2, “Compositions and methods for promoting fatty acid production in plants” (The Regents of the University of Colorado, a body corporate, priority 2009, dated 2013).

One data set concerns Schizochytrium. Put plainly: Forward versus side scatter flow cytometry for oxamate-induced cell death. It counts as cell-based. The settings on record: at higher concentrations of oxamate, FIG. 3. On the procedure:
Schizochytrium or chlamydomonas were harvested, counted, and resuspended at 10^6 cells/100 μl of PBS containing 2.5% fetal calf serum in preparation for flow cytometric analysis. Lysosensor dyes were used to detect fatty acids in glyoxosomes or oil droplets. Mitochondrial membrane potential was assessed using Mitotracker Red (CM-H2XROS, BD Pharmingen). The cells were resuspended in PBS containing 2.5% fetal calf serum containing a final concentration of 0.5 micromolar Mitotracker dye. The cells were incubated at 37° for 20 minutes, washed twice in PBS containing 2.5% fetal calf serum and analyzed flow cytometrically. Data were acquired on a Coulter Excel flow cytometer (Coulter, Hialeah, Fla.) and analyzed with FloJo software. […] Each sample population was classified for cell size (forward scatter) and complexity (side scatter), gated on a population of interest and evaluated using 30,000 cells.
Percents: Gating is a tool provided by FloJo software and allows for the analysis of a certain population of cells. […] After the gates were drawn, a percent value of dead cells was calculated by taking the number of dead cells divided by the number of total cells and multiplying by one hundred.
The bar graph in FIG. 3 depicts the increase in geometric mean of fluorescence in the treated group minus the untreated. […]

The subject of a further data set is cell wall UCP. The following applies: wild type strains of C. reinhardtii; prior studies, U.S. Pat. No. 7,105,718; cited from earlier work.

Take `NC(=O)C(=O)O` [Oxamate, oxamate]: the “percentage of cell death” value in the data set on Schizochytrium is recorded as “significantly increased percentage of cell death”.
Take `CNc1cnn(-c2cccc(C(F)(F)F)c2)c(=O)c1Cl` [norflurazon]: in the data set on cell wall UCP, the “cell wall expression of UCP” value is on record as “did upregulate cell wall expression of UCP”.
